One molecule from ChEMBL document CHEMBL5523756, “Molecular Transformers: Adaptive Multitarget Ligands for Esterase-Induced Transition from Analgesics to Anesthetics” (J Med Chem, 2024) can be followed below.

Data set [1] concerns the target T1, Cocaine esterase (Homo sapiens, UniProt O00748).
T1 sequence (O00748 whole entry): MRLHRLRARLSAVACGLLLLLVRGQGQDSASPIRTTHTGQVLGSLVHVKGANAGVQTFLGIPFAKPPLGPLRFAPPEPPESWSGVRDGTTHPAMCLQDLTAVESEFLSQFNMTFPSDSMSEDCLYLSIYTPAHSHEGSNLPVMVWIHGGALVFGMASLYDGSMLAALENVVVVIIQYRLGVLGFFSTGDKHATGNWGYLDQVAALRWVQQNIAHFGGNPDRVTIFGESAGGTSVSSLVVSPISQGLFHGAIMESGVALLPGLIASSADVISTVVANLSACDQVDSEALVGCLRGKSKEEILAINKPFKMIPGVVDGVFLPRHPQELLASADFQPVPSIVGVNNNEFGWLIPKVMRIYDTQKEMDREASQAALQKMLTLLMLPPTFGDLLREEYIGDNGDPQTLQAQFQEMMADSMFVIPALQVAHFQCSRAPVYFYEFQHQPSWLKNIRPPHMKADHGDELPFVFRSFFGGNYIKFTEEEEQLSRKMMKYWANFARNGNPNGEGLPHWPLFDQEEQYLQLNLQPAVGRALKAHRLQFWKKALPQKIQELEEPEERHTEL
Put plainly: Drug metabolism assessed as human CES2-mediated propofol release at 1 mg/ml measured upto 240 mins by LC-MS analysis. Conditions: 4 h. Format: ADME.

Data set [2] can be described thus: Toxicity in ICR mouse assessed as effect on biochemical parameters at 1.5 times ED50, iv administered as single dose. Format: organism-based. The conditions noted are these: in vivo.
Data set [3] is described as follows: Toxicity in Sprague-Dawley rat assessed as reduction in heart rate at 19 mg/kg administered as continuous infusion followed by maintenance at 3.25 mg/kg/min for 0 to 20 mins, 2.5 mg/kg/min for 20 to 30 mins and 2 mg/kg/min for 30 to 60 mins by electrocardiogram recording. Conditions: in vivo, other, 1 h, route par. Set-up: scale not given: the % may be the effect or the level left. It counts as organism-based.

Data set [4] can be described thus: Toxicity in ICR mouse assessed as histopathological changes in liver at 1.5 times ED50, iv administered as single dose and measured after 14 days by H and E staining based analysis. It counts as organism-based. The conditions noted are these: in vivo, 336 h, time 14 day.
The nature of data set [5]: Stability in mouse plasma assessed as half life at 1 mg/ml measured upto 360 mins by HPLC analysis. It counts as ADME, cell-free.
In data set [6] the target is T2, CYP1A2 (Homo sapiens, UniProt P05177).
T2 sequence (P05177 whole entry): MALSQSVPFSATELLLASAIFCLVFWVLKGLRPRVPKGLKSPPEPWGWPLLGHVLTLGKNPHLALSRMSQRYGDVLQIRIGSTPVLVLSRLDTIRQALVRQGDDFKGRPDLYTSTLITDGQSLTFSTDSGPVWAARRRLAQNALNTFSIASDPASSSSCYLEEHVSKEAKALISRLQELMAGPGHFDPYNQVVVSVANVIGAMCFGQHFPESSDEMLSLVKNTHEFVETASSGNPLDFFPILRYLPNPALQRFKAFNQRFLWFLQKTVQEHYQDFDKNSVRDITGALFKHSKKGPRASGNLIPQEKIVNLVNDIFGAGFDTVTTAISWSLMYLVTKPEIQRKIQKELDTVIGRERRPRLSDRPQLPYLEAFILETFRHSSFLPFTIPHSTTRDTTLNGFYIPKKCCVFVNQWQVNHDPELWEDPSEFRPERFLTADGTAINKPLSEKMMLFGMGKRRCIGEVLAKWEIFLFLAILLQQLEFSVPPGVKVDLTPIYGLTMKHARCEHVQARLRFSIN
Put plainly: Inhibition of CYP1A2 (unknown origin) using phenacetin as substrate at 10 uM relative to control. It counts as ADME. Conditions: probe phenacetin.

Data set [7] is described as follows: Toxicity in Sprague-Dawley rat assessed as effect on end inspiratory pause at 19 mg/kg administered as continuous infusion followed by maintenance at 3.25 mg/kg/min for 0 to 20 mins, 2.5 mg/kg/min for 20 to 30 mins and 2 mg/kg/min for 30 to 60 mins and measured every 5 mins for 60 mins by whole-body plethysmography. Format: organism-based. The conditions noted are these: in vivo, other, 1 h, route par.

Data set [8] deals with T3, Sodium channel protein type 10 subunit alpha (Homo sapiens, UniProt Q9Y5Y9). Kind of data set: Inhibition of Nav1.8 channel (unknown origin) at half inactivation state at -120 mV conditioning pulse by voltage clamp electrophysiological recording.
T3 sequence (Q9Y5Y9 whole entry): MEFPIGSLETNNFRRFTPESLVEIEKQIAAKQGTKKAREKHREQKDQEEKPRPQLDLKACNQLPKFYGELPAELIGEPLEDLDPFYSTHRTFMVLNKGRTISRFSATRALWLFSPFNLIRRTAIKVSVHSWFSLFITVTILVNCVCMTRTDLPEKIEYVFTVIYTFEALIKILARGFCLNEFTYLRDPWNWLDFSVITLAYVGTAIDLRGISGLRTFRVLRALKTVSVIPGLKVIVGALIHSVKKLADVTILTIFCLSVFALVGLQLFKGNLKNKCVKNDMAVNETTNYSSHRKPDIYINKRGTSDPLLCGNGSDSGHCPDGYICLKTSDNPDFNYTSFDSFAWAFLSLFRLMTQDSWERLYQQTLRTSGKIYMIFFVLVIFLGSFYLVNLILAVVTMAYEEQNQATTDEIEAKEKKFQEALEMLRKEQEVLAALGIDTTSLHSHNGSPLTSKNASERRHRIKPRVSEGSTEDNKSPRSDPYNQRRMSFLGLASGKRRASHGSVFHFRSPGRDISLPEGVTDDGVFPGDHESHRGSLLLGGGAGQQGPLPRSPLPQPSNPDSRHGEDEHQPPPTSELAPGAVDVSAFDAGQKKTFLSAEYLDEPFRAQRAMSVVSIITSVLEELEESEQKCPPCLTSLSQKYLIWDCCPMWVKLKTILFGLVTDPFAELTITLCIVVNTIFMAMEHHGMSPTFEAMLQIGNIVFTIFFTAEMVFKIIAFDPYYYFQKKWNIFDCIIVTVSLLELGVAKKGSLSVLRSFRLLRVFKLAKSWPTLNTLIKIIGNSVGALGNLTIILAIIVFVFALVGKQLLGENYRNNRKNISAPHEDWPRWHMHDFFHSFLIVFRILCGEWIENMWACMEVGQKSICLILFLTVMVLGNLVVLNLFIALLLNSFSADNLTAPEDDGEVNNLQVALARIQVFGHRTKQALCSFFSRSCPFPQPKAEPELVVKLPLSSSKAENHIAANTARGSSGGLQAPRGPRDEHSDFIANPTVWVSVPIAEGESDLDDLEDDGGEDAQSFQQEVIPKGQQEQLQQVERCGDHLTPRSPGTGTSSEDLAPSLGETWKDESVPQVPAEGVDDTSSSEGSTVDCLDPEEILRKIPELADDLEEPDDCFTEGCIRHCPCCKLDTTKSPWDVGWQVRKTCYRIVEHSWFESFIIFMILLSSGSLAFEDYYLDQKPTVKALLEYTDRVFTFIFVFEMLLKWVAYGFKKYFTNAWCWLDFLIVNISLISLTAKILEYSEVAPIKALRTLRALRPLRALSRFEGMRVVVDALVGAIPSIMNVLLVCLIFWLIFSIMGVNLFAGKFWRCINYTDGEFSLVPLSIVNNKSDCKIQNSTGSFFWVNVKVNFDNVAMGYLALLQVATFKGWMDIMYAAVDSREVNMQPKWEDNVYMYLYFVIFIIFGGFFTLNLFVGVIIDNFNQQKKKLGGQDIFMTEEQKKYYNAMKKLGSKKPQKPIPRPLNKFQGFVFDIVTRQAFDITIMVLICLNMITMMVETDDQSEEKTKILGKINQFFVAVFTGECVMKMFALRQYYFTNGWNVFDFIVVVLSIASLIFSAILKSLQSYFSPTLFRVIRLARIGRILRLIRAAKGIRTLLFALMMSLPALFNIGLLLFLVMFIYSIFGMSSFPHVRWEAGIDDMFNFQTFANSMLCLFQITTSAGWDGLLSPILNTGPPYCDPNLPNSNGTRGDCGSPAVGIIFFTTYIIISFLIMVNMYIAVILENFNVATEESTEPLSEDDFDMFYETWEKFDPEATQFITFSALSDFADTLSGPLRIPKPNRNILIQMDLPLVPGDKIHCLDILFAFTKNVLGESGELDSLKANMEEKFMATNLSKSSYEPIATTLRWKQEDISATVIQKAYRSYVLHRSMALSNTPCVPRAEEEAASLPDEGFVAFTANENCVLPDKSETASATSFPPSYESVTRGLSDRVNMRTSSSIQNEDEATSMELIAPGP
Data set [9] can be described thus: Drug metabolism in mouse liver microsomes assessed as propofol release by measuring half life at 1 mg/ml measured upto 360 mins by LC-MS analysis. Format: ADME, Microsome. The conditions noted are these: 6 h. (Liver microsomes are a subcellular fraction often used to study metabolism.)
Data set [10] concerns the target Sodium channel protein type 9 subunit alpha (Homo sapiens, UniProt Q15858). Kind of data set: Inhibition of Nav1.7 channel (unknown origin) at half inactivation state at -120 mV conditioning pulse by voltage clamp electrophysiological recording.
The subject of data set [11] is DRG neuron. Kind of data set: Modulation of CFA-induced male ICR mouse DRG neuron excitability assessed as reduction in action potential's rheobase at 10 uM by whole cell […] assay. Format: functional, cell-based.
In data set [12] the test system is Mus musculus. Kind of data set: Analgesic effect in ICR mouse model of CFA-induced chronic inflammatory pain assessed as increase in paw withdrawal threshold at 0.07 mmol/kg, ip measured upto 90 mins by Von Frey test. It counts as functional, organism-based.
In data set [13] the target is Sodium channel protein type 5 subunit alpha (Homo sapiens, UniProt Q14524). Put plainly: Inhibition of Nav1.5 channel (unknown origin) at half inactivation state at -120 mV conditioning pulse by voltage clamp electrophysiological recording. It counts as toxicity.
Sequence of Sodium channel protein type 5 subunit alpha (Q14524 whole entry): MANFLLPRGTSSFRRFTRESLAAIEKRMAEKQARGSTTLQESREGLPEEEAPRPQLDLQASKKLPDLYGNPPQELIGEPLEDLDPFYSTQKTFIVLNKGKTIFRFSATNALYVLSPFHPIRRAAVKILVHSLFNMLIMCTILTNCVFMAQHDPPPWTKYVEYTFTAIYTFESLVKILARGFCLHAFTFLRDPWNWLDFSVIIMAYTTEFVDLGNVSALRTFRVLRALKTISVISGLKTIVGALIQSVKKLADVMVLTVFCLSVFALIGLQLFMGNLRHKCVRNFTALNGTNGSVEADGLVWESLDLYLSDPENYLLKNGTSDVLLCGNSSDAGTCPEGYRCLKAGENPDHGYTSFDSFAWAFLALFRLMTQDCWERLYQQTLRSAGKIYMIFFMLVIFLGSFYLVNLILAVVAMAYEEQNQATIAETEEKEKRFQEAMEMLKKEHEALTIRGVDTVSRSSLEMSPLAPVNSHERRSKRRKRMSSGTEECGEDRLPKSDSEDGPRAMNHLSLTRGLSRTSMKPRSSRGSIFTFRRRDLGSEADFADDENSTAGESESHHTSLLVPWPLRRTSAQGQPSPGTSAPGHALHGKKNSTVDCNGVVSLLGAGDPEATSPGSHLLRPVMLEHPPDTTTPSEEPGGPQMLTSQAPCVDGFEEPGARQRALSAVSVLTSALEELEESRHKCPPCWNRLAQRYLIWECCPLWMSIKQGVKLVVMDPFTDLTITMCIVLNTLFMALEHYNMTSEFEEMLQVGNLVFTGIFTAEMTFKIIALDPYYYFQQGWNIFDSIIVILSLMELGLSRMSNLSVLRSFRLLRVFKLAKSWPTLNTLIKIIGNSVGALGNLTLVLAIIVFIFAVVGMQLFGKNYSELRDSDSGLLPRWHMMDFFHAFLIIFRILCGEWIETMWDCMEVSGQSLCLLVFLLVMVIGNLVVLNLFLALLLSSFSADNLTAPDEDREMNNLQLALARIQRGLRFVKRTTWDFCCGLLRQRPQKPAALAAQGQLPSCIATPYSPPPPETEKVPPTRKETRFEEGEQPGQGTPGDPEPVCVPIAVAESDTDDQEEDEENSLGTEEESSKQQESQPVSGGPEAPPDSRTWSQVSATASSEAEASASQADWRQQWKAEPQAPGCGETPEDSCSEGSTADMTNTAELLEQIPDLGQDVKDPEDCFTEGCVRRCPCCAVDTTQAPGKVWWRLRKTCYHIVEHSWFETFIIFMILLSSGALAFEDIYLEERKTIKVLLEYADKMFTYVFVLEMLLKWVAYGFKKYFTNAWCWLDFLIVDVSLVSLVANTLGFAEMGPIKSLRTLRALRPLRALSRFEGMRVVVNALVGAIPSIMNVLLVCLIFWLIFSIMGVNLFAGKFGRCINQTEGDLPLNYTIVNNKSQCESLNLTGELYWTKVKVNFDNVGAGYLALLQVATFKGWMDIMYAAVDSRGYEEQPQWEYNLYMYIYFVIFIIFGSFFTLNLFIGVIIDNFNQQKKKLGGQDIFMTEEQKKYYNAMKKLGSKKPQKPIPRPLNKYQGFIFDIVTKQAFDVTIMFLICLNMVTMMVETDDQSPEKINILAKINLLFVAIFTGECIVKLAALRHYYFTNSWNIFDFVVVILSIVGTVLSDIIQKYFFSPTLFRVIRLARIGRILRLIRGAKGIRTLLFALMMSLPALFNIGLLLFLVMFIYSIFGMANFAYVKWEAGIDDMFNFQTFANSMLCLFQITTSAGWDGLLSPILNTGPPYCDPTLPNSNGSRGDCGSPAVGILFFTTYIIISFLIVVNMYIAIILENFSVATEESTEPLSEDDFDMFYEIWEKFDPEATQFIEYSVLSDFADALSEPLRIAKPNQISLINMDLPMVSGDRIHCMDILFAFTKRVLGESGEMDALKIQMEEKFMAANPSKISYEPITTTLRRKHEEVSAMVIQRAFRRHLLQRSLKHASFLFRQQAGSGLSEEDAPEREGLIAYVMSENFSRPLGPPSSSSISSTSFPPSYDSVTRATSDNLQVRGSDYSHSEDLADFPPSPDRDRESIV
Data set [14] has as its system Mus musculus. Kind of data set: Antiseizure activity in iv dosed ICR mouse model of PTZ-induced acute seizure assessed as mortality rate preadministered for 1 min followed by PTZ treatment and measured for 7 days (reference value: 83.3%). The conditions noted are these: time 7 day. It counts as functional.
A short description of data set [15]: Stability in rat plasma assessed as half life at 1 mg/ml measured upto 360 mins by HPLC analysis. Format: ADME, cell-free.
Data set [16] is described as follows: Toxicity in Sprague-Dawley rat assessed as ALT level at 19 mg/kg administered as continuous infusion followed by maintenance at 3.25 mg/kg/min for 0 to 20 mins, 2.5 mg/kg/min for 20 to 30 mins and 2 mg/kg/min for 30 to 60 mins. It counts as organism-based. Conditions: in vivo, other, 1 h, route par.
In data set [17] the test system is Rattus norvegicus. Kind of data set: Analgesic activity in Sprague-Dawley rat model of mechanical nociceptive irritation assessed as response to tail pinch at 19 mg/kg administered as continuous infusion followed by maintenance at 3.25 mg/kg/min for 0 to 20 mins, 2.5 mg/kg/min for 20 to 30 mins and 2 mg/kg/min for 30 to 60 mins. It counts as functional, organism-based. Conditions: route par.

Data set [18] has as its system Rattus norvegicus. Kind of data set: Anesthesia recovery in Sprague-Dawley rat assessed as effect on recovery time of righting reflex at 19 mg/kg administered as continuous infusion followed by maintenance at 3.25 mg/kg/min for 0 to 20 mins, 2.5 mg/kg/min for 20 to 30 mins and 2 mg/kg/min for 30 to 60 mins. Conditions: route par. Format: functional, organism-based.

For data set [19], the system named is DRG neuron. Kind of data set: Modulation of CFA-induced male ICR mouse DRG neuron excitability assessed as reduction in resting membrane potential at 10 uM by whole cell […] assay. Format: functional, cell-based.
In data set [20] the target is T3, Sodium channel protein type 10 subunit alpha. Kind of data set: Inhibition of Nav1.8 channel (unknown origin) at resting state at -120 mV conditioning pulse by voltage clamp electrophysiological recording.
The nature of data set [21]: Toxicity in ICR mouse assessed as survival rate at 1.5 times ED50 administered intravenously. Conditions: in vivo, route iv.
A short description of data set [22]: Drug metabolism in rat liver microsomes assessed as propofol release by measuring half life at 1 mg/ml measured upto 360 mins by LC-MS analysis. Format: ADME, Microsome. Conditions: 6 h.

The source made the active and inactive calls. Bounds are passed on as bounds.

Usually half-life stands for the time needed for the level to fall by half in the phase considered. What is called inhibition is the percentage by which the read-out fell short of the control. For orientation: IC50 means the point on the concentration scale where inhibition reaches its midpoint. Regarding `CCN(CC)CCOC(=O)Oc1c(C(C)C)cccc1C(C)C.Cl`, the Drug metabolism entry in data set [1] is “Metabolite_Detected”. For the same molecule, the Activity entry was “Non-Toxic” in [2]; under 20% in data set [3]; “Non-Toxic” in data set [4]; “Non-Toxic” in [7]; 0% in data set [14]; 52.47 U/L in data set [16]. Besides, the half-life at 1 mg/ml came to 19.2 min in data set [5] and 1.7 min in [15]. The inhibition at 10 µM in [6] was 26.2%. In addition, the IC50 is 1.92 µM in data set [8], 7.43 µM in [10], 20.5 µM in [13] and over 30 µM in data set [20]. Also, the figures for the t1/2 in [9] and in data set [22] were 45.98 min and 81.09 min, respectively. For the same molecule, the result in data set [11] and in [19] was inactive. Also, the result in [12], in data set [17] and in data set [18] was Active. For the same molecule, the survival in data set [21] came to 100%.
